The target in the assay is LRRK2 G2019S (Homo sapiens, UniProt Q5S007, G2019S). The assay can be described thus: LRRK2 G2019S Km ATP LanthaScreen assay. The assay is classed as biochemical. The note with it: for IC50: read-out: LRRK2 pIC50 (converted). For orientation: In TR-FRET formats the signal depends on donor and acceptor labels being close together.

This is an account of results in patent US20240398784A1, “C-LINKED ISOQUINOLINE AMIDES AS LRRK2 INHIBITORS, PHARMACEUTICAL COMPOSITIONS, AND USES THEREOF” (Merck Sharp & Dohme LLC, priority 2021, published 2024).

Chain of LRRK2 G2019S (Q5S007 whole entry G2019S): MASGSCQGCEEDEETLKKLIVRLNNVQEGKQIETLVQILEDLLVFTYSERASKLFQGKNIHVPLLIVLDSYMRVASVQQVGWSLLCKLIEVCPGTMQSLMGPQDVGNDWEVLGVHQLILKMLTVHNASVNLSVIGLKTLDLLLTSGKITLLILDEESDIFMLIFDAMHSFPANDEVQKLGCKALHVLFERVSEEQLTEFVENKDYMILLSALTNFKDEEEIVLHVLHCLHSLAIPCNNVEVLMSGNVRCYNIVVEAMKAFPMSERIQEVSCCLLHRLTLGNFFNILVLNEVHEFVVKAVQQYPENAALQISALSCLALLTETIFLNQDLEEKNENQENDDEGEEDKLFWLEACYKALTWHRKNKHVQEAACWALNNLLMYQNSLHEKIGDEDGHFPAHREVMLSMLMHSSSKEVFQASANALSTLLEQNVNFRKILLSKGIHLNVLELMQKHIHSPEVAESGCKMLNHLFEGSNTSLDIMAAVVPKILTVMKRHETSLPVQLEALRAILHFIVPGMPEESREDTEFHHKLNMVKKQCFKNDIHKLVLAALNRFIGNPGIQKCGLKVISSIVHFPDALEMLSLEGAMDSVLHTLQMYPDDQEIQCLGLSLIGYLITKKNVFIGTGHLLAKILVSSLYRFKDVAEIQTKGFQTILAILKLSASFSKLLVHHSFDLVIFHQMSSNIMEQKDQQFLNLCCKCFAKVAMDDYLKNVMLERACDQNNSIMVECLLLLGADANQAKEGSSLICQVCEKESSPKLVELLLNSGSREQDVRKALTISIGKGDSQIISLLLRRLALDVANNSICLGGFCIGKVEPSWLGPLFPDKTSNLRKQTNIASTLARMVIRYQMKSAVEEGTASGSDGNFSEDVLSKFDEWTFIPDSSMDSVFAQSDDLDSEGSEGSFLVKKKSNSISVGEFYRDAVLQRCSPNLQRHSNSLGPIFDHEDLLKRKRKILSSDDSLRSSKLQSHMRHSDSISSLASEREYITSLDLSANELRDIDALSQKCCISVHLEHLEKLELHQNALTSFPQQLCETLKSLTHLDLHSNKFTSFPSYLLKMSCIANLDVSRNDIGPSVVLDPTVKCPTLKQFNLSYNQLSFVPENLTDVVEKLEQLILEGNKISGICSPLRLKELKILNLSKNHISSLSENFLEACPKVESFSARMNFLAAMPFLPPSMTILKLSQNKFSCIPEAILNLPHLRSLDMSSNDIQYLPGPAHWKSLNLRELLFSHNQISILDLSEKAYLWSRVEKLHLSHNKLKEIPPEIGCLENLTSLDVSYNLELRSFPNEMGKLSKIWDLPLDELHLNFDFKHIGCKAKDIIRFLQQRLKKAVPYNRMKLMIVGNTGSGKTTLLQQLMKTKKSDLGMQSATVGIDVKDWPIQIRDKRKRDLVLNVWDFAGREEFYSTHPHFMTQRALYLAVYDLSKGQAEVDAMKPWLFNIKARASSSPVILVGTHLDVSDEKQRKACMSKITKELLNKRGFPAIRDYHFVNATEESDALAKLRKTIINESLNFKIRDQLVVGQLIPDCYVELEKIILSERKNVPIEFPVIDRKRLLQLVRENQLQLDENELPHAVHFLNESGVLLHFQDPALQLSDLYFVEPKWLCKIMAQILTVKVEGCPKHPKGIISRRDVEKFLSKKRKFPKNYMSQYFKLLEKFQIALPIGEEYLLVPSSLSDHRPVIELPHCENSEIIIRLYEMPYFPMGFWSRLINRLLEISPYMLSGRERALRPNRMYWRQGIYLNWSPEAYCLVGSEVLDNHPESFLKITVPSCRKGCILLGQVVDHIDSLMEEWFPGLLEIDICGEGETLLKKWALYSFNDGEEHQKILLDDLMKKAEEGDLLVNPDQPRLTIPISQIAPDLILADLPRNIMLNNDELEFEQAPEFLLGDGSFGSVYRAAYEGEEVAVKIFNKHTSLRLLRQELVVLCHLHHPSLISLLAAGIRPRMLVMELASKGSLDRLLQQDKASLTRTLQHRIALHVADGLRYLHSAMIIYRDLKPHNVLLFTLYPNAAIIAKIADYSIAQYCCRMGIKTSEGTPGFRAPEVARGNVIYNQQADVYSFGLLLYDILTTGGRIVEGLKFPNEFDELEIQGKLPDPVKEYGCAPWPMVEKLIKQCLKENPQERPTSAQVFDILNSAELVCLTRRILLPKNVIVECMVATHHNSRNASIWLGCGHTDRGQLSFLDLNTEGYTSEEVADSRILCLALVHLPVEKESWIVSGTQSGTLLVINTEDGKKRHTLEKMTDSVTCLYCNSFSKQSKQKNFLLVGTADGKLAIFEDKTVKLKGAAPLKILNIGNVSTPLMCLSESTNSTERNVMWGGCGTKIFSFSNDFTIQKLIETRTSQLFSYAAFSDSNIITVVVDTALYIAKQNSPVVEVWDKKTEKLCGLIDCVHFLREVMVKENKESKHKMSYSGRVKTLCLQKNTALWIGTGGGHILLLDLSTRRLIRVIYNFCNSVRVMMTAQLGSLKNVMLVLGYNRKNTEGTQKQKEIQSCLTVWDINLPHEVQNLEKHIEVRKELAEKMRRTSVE

Consider `Cc1ccc(C2CC2C(=O)Nc2cc3cc(C4CCN(C5(C)COCC5O)CC4)c(Cl)cc3cn2)s1` (single isomer, unassigned) [Ex-4.57, N-(7-chloro-6-(1-(4-hydroxy-3-methyltetrahydrofuran-3-yl)piperidin-4-yl)isoquinolin-3-yl)-2-(5-methylthiophen-2-yl)cyclopropane-1-carboxamide], for which the IC50 is 41.7 nM.

On to `COC1CC(C(=O)Nc2cc3cc(C4(C#N)CC45CC5)ccc3cn2)C1` (single isomer, unassigned) [Ex-1.2, (1R,3R or 1S,3S)-N-(6-((R or S)-1-cyanospiro[2.2]pentan-1-yl)isoquinolin-3-yl)-3-methoxycyclobutane-1-carboxamide], for which the IC50 was 0.661 nM.

Regarding `CC1(C)CC(C(=O)Nc2cc3cc(C4CCN(C5(C)CCOC5)CC4)c(Cl)cc3cn2)CCO1` (single isomer, unassigned) [Ex-6.44, N-(7-chloro-6-(1-(3-methyltetrahydrofuran-3-yl)piperidin-4-yl)isoquinolin-3-yl)-2,2-dimethyltetrahydro-2H-pyran-4-carboxamide], the IC50 is 5.37 nM.

On to `O=C(Nc1cc2cc(C3CCN(C4COC4)CC3)c(Cl)cc2cn1)C1CC12CC2` (stereo not shown) [Ex-9.1], for which the “LRRK2 pIC50” value is on record as 8.69.

With `CC1(N2CCC(c3cc4cc(NC(=O)C5CC5C#N)ncc4cc3Cl)CC2)COC1` (stereo not shown) [Ex-2.8], the IC50 is 8.32 nM.

As to `O=C(Nc1cc2cc(C3C4CCOCC43)c(Cl)cc2cn1)C1CC12CCOCC2` (single isomer, unassigned) [Ex-9.24, N-(6-(3-oxabicyclo[4.1.0]heptan-7-yl)-7-chloroisoquinolin-3-yl)-6-oxaspiro[2.5]octane-1-carboxamide], the IC50 was 6.61 nM.

For the molecule `CCOC1CC2(C1)CC2C(=O)Nc1cc2cc(C3CCN(C4(C)COCC4O)CC3)c(Cl)cc2cn1` (single isomer, unassigned) [Ex-4.30, N-(7-chloro-6-(1-(4-hydroxy-3-methyltetrahydrofuran-3-yl)piperidin-4-yl)isoquinolin-3-yl)-5-ethoxyspiro[2.3]hexane-1-carboxamide], the IC50 is 3.02 nM.

As for `CC1(N2CCC(c3cc4cc(NC(=O)C5CCC(C(F)(F)F)OC5)ncc4cc3Cl)CC2)COCC1O` (stereo not shown) [Ex-2.61], the IC50 was 43.7 nM.

Regarding `CC1(N2CCC(c3cc4cc(NC(=O)C5CC56CCOCC6)ncc4cc3Cl)C(F)C2)COCC1O` (single isomer, unassigned) [Ex-14.6, N-(7-chloro-6-(3-fluoro-1-(4-hydroxy-3-methyltetrahydrofuran-3-yl)piperidin-4-yl)isoquinolin-3-yl)-6-oxaspiro[2.5]octane-1-carboxamide], the IC50 was 2.57 nM.

Take `CCOC1CC2(C1)CC2C(=O)Nc1cc2cc(C3CCN(C4(C)COCC4F)CC3)c(Cl)cc2cn1` (stereo not shown) [Ex-2.82]: the IC50 is 0.0813 nM.

`Cc1cc2cnc(NC(=O)C3C(C)C3c3cnn(C)c3)cc2cc1C1CCN(C2(C)COCC2F)CC1` (single isomer, unassigned) [Ex-16.7, N-(6-(1-(4-fluoro-3-methyltetrahydrofuran-3-yl)piperidin-4-yl)-7-methylisoquinolin-3-yl)-2-methyl-3-(1-methyl-1H-pyrazol-4-yl)cyclopropane-1-carboxamide]: the IC50 is 0.0813 nM.

As to `O=C(Nc1cc2cc(C3CCN(C4COCC4O)CC3)c(Cl)cc2cn1)C1CC1` (single isomer, unassigned) [Ex-12.4, N-(7-chloro-6-(1-(4-hydroxytetrahydrofuran-3-yl)piperidin-4-yl)isoquinolin-3-yl)cyclopropanecarboxamide], the IC50 is 66.1 nM.

Turning to `N#CC1(c2ccc3cnc(NC(=O)C4CC4c4cccnc4)cc3c2)CC12CC2` (stereo not shown) [Ex-2.45], the IC50 was 11.2 nM.

Consider `Cn1cc(C(=O)Nc2cc3cc(C4(C#N)CC45CC5)ccc3cn2)cn1` (single isomer, unassigned) [Ex-18.16, (R or S)-N-(6-(1-cyanospiro[2.2]pentan-1-yl)isoquinolin-3-yl)-1-methyl-1H-pyrazole-4-carboxamide], for which the IC50 is 3.09 nM.

Regarding `O=C(Nc1cc2cc(C3CCN(C4COC4)CC3)c(Cl)cc2cn1)C1CC12CC2` (single isomer, unassigned) [Ex-9.2], the IC50 was 1.45 nM.

Regarding `Cc1cc2cnc(NC(=O)C3CC3C(F)F)cc2cc1C1CCN(C2(C)COCC2O)CC1` (stereo not shown) [Ex-2.54], the IC50 is 0.49 nM.

As for `O=C(Nc1cc2cc(C3CCN(C4COCC4O)CC3)c(Cl)cc2cn1)C1CC12CCOCC2` (single isomer, unassigned) [Ex-4.1, (R or S)-N-(7-chloro-6-(1-((3R,4R or 3R, 4R)-4-hydroxytetrahydrofuran-3-yl)piperidin-4-yl)isoquinolin-3-yl)-6-oxaspiro[2.5]octane-1-carboxamide], the IC50 was 0.631 nM.

On to `COC1CC(C(=O)Nc2cc3cc(C4(C#N)CC45CC5)ccc3cn2)C1` (single isomer, unassigned) [Ex-1.4, (1R,3R or 1S,3S)-N-(6-((R or S)-1-cyanospiro[2.2]pentan-1-yl)isoquinolin-3-yl)-3-methoxycyclobutane-1-carboxamide], for which the IC50 is 3.63 nM.

With `COC1CC(C(=O)Nc2cc3cc(C4CCN(C5COC5)CC4)c(Cl)cc3cn2)C1` (racemic) [Ex-7.9, Rac-N-(7-chloro-6-(1-(oxetan-3-yl)piperidin-4-yl)isoquinolin-3-yl)-3-methoxycyclobutane-1-carboxamide], the IC50 is 2.63 nM.

For the molecule `CC1(N2CCC(c3cc4cc(NC(=O)c5cnn(C6CC6)c5)ncc4cc3Cl)CC2)COCC1O` (single isomer, unassigned) [Ex-1.48, N-(7-chloro-6-(1-((3R,4R or 3S,4S)-4-hydroxy-3-methyltetrahydrofuran-3-yl)piperidin-4-yl)isoquinolin-3-yl)-1-cyclopropyl-1H-pyrazole-4-carboxamide], the IC50 is 55 nM.

For the molecule `CC1(N2CCC(c3cc4cc(NC(=O)C5CC5c5cccs5)ncc4cc3Cl)CC2)COCC1O` (single isomer, unassigned) [Ex-4.59, N-(7-chloro-6-(1-(4-hydroxy-3-methyltetrahydrofuran-3-yl)piperidin-4-yl)isoquinolin-3-yl)-2-(thiophen-2-yl)cyclopropane-1-carboxamide], the IC50 was 129 nM.

As to `CC(C)(O)C1CC1C(=O)Nc1cc2cc(C3CCN(C4(C)COCC4F)CC3)c(Cl)cc2cn1` (single isomer, unassigned) [Ex-6.29, N-(7-chloro-6-(1-(4-fluoro-3-methyltetrahydrofuran-3-yl)piperidin-4-yl)isoquinolin-3-yl)-2-(2-hydroxypropan-2-yl)cyclopropane-1-carboxamide], the IC50 was 24.5 nM.

With `CC1(N2CCC(c3cc4cc(NC(=O)C5CC5C(F)F)ncc4cc3Cl)CC2)COCC1O` (single isomer, unassigned) [Ex-10.10, N-(7-chloro-6-(1-(4-hydroxy-3-methyltetrahydrofuran-3-yl)piperidin-4-yl)isoquinolin-3-yl)-2-(difluoromethyl)cyclopropane-1-carboxamide], the IC50 is 15.5 nM.

Take `N#CC1(c2ccc3cnc(NC(=O)C4CC4)cc3c2)CC1` [Ex-17.1]: the IC50 is 19.1 nM.

As to `CCC1C(C(=O)Nc2cc3cc(C(C)COC)c(Cl)cc3cn2)C1c1cnn(C)c1` (single isomer, unassigned) [Ex-9.14, N-(7-chloro-6-(1-methoxypropan-2-yl)isoquinolin-3-yl)-2-ethyl-3-(1-methyl-1H-pyrazol-4-yl)cyclopropane-1-carboxamide], the IC50 is 1.17 nM.
